Laboratory results published in patent US20240368165A1, “SOLID STATE FORMS OF HYDROCHLORIDE SALT OF ((1S,2S,4R)-4-{4-[(1S)-2,3-DIHYDRO-1H-INDEN-1-YLAMINO]-7H-PYRROLO[2,3-D]PYRIMIDIN-7-YL}-2-HYDROXYCYCLOPENTYL)METHYL SULFAMATE” (Takeda Pharmaceutical Company Limited, priority 2020, published 2024).

Legend:
Assay type in all cases: physicochemical
Solubility of solid form = conditions: pH 2.33; pH of 2.33
[1] = Solid-state stability under accelerated storage, purity via HPLC; conditions: for stability with respect to change in TAK-924 chemical purity (% Area) and physical form / overall chemical and physical stability: accelerated storage; for stability with respect to change in TAK-924 chemical purity (% Area) and physical form: compared to Form 1; for overall chemical and physical stability: overall stability data
Procedure: (§1) Solid-state stability studies of Forms 1, 9, and 12 were performed to assess the relative stability of new anhydrous Forms 9 and 12. Solid samples of each pattern were stored in open and closed glass vials at accelerated conditions (40° C./75% RH open and closed, and 60° C. closed). […]

[2] = Solid-state stability under accelerated storage, polymorphic form via XRPD; conditions: T-6 Days, hydrochloride
Procedure: as §1

[3] = 40° C./75% RH Closed, T-3.5 Weeks, hydrochloride
[4] = 40° C./75% RH Closed, T-6 Days, hydrochloride
[5] = 40° C./75% RH Open, T-3.5 Weeks, hydrochloride
[6] = 40° C./75% RH Open, T-6 Days, hydrochloride
[7] = 60° C. (closed), T-3.5 Weeks, hydrochloride
[8] = 60° C. (closed), T-6 Days, hydrochloride

Structure (SMILES)	solubility (Solubility of solid form)	stability with respect to change in TAK-924 chemical purity (% Area) and physical form [1]	overall chemical and physical stability [1]	HPLC Purity (% Area TAK-924) [1, 3]	HPLC Purity change from T-0 [1, 3]	HPLC Purity (% Area TAK-924) [1, 4]	HPLC Purity change from T-0 [1, 4]	HPLC Purity (% Area TAK-924) [1, 5]	HPLC Purity change from T-0 [1, 5]	HPLC Purity (% Area TAK-924) [1, 6]	HPLC Purity change from T-0 [1, 6]	HPLC Purity (% Area TAK-924) [1, 7]	HPLC Purity change from T-0 [1, 7]	HPLC Purity (% Area TAK-924) [1, 8]	HPLC Purity change from T-0 [1, 8]	HPLC Purity (% Area TAK-924), Initial (T-0) ([1]; Initial (T-0), before accelerated storage, hydrochloride)	XRPD Results (polymorphic form after accelerated storage) ([2]; 40° C./75% RH Closed)	XRPD Results (polymorphic form after accelerated storage) ([2]; 60° C. (closed))
Cl.NS(=O)(=O)OC[C@@H]1C[C@@H](n2ccc3c(N[C@H]4CCc5ccccc54)ncnc32)C[C@@H]1O [Compound Form 9, ((1S,2S,4R)-4-{4-[(1S)-2,3-dihydro-1H-inden-1-ylamino]-7H-pyrrolo[2,3-d]pyrimidin-7-yl}-2-hydroxycyclopentyl)methyl sulfamate hydrochloride]	~7800 µg/mL	stable when compared to Form 1	chemically and physically stable															
Cl.NS(=O)(=O)OC[C@@H]1C[C@@H](n2ccc3c(N[C@H]4CCc5ccccc54)ncnc32)C[C@@H]1O [Compound Form 12, ((1S,2S,4R)-4-{4-[(1S)-2,3-dihydro-1H-inden-1-ylamino]-7H-pyrrolo[2,3-d]pyrimidin-7-yl}-2-hydroxycyclopentyl)methyl sulfamate hydrochloride]		stable when compared to Form 1	chemically and physically stable															
Cl.NS(=O)(=O)OC[C@@H]1C[C@@H](n2ccc3c(N[C@H]4CCc5ccccc54)ncnc32)C[C@@H]1O [Compound Form 1, ((1S,2S,4R)-4-{4-[(1S)-2,3-dihydro-1H-inden-1-ylamino]-7H-pyrrolo[2,3-d]pyrimidin-7-yl}-2-hydroxycyclopentyl)methyl sulfamate hydrochloride]				98.1 % Area	(−0.9%)	98.6 % Area	(−0.4%)	98.8 % Area	(−0.2%)	98.9 % Area	(−0.1%)	86.6 % Area	(−13.4%)	94.4 % Area	(−5.6%)	99.0 % Area	Form 1	Form 1
